Test system: CA4 CpG sites
Experiment: Bisulfite sequencing of CpG sites, cell lines treated vs. untreated
Format: cell-based, human
Parameters: unit not given here
Description: Samples: Paired tumor and adjacent normal tissues from twelve colorectal cancer patients were collected under institutional review board (IRB) approval with patient consent. Tissues were flash frozen in LN2 and stored at −80° C. prior to DNA extraction. All tissues were blinded. Cell lines: A panel of five colorectal cancer cell lines was used. Cells were grown to ˜50% confluence in the appropriate culture medium prior to treatment with 5-aza-2′-deoxycytidine. Optimal concentrations and incubation times (Table 4) were determined by assaying for reduction of p16 promoter methylation using MSP. Cells were harvested, pelleted by centrifugation, and washed twice in Hanks buffered saline solution. Cell pellets were stored at −80° C. Control cells were maintained simultaneously without 5-aza-2′-deoxycytidine treatment. DNA extraction: DNA was purified from tissues and cell lines using the QIAGEN DNeasy® Tissue Kit. Approximately 25-35 mg of each tissue was pulverized under liquid nitrogen before extraction. Elution volume for tissues was 2004. A final volume of […] of cell line DNA was extracted from 15 to 254 of each packed cell pellet (between 10^6-10^7 cells). Purified DNA was stored at −20° C. Bisulfite modification: Modification was performed according to the Frommer method (See Frommer M, et al., PNAS, 89: 1827-1831 (1992).) One μg genomic DNA was diluted into 50 μl with distilled H2O, 5.5 μl of 2M NaOH was added, and the mixture incubated at 37° C. for 10 minutes (to create single stranded DNA). Thirty μl of freshly prepared 10 mM hydroquinone (Sigma) was added to each tube. Five hundred twenty μl of freshly prepared 3M sodium bisulfite (Sigma S-8890), pH 5.0 was then added. Reagents were thoroughly mixed and then covered with mineral oil and incubated at 50° C. for 16 hours. After removing the oil, 1 ml of Wizard DNA Cleanup Resin (Promega A7280) was added to each tube prior to applying the mixture to miniprep column in the DNA Wizard Cleanup kit. The column was washed with 2 ml of 80% isopropanol, and eluted with 50 μl of heated water (60-70° C.). 5.5 μl of 3 M NaOH to was added to each tube, and incubated at room temperature for 5 minutes. Then 1 μl glycogen was added as carrier, 33 μl of 10 M NH4Ac, and 3 volumes of ethanol for DNA precipitation. The pellet was spun down and washed with 70% ethanol, dried and resuspended in 20 μl water. In some instances, the EZ DNA Methylation Kit (Zymo Research) which uses a simplified version of the Frommer method was used. In these cases, 1 μg of genomic DNA was denatured in 0.3M NaOH for 15 minutes at 37° C. followed by incubation at 50° C. for 16 hours in 0.5 mM hydroquinone and a saturated solution of sodium bisulfite at pH 5. Modified DNA was bound to the Zymo column membrane, then desulfonated with 0.3M NaOH for 15 minutes at room temperature. DNA was washed and resuspended with 50 μL 10 mM Tris-HCl-0.1 mM EDTA, pH 7.5 and stored at −20° C. The bisulfite reaction results in conversion of an unmethylated cytosine to uracil. Methylated cytosine remains unchanged after the bisulfite reaction. The resulting bisulfite modified DNA is single stranded. PCR amplification for sequencing: Primers were designed to amplify both methylated and unmethylated fragments of DNA (Table 5). Five μL of modified DNA ( 1/10 of modification reaction) was amplified first in a 254, reaction volume containing 10 mM Tris-HCl pH8.3, 50 mM KCl, 1.5 mM to 2 mM MgCl2, (Applied Biosystems), 0.25 mM each dNTP, 0.5 unit AmpliTaq (Applied Biosystems), and sequencing primers (each at 200 nM). Cycling conditions were 10 minutes at 95° C., 40 cycles of 30 seconds at 95° C., 30 seconds at 54-62° C., 30 seconds at 72° C., subsequently followed by extension for 5 minutes at 72° C.
Reaction products were purified either by the shrimp-alkaline phosphatase-Exol standard method or on the Qiagen Qiaquick PCR clean-up column and eluted in 30 μL 10 mM Tris-HCl, pH8.5. […]

Question: What does the source list for Nc1ncn([C@H]2C[C@H](O)[C@@H](CO)O2)c(=O)n1 [5-aza-2′-deoxycytidine]?
Answer: CA4 sequencing result (methylation) at CpG site #6 (HT-29 treated): 47; CA4 sequencing result (methylation) at CpG site #35 (HT-29 treated): 96; CA4 sequencing result (methylation) at CpG site #43 (HT-29 treated): 77; CA4 sequencing result (methylation) at CpG site #52 (HT-29 treated): 92; CA4 sequencing result (methylation) at CpG site #104 (HT-29 treated): 50; CA4 sequencing result (methylation) at CpG site #120 (HT-29 treated): 67; CA4 sequencing result (methylation) at CpG site #127 (HT-29 treated): 74; CA4 sequencing result (methylation) at CpG site #129 (HT-29 treated): 87; CA4 sequencing result (methylation) at CpG site #140 (HT-29 treated): 84; CA4 sequencing result (methylation) at CpG site #153 (HT-29 treated): 83; CA4 sequencing result (methylation) at CpG site #156 (HT-29 treated): 72; CA4 sequencing result (methylation) at CpG site #158 (HT-29 treated): 87; CA4 sequencing result (methylation) at CpG site #164 (HT-29 treated): 87; CA4 sequencing result (methylation) at CpG site #181 (HT-29 treated): 73; CA4 sequencing result (methylation) at CpG site #190 (HT-29 treated): 68; CA4 sequencing result (methylation) at CpG site #199 (HT-29 treated): 92; CA4 sequencing result (methylation) at CpG site #201 (HT-29 treated): 100; CA4 sequencing result (methylation) at CpG site #204 (HT-29 treated): 94; CA4 sequencing result (methylation) at CpG site #213 (HT-29 treated): 91; CA4 sequencing result (methylation) at CpG site #218 (HT-29 treated): 65; CA4 sequencing result (methylation) at CpG site #220 (HT-29 treated): 79; CA4 sequencing result (methylation) at CpG site #227 (HT-29 treated): 47; CA4 sequencing result (methylation) at CpG site #6 (LS123 treated): 75; CA4 sequencing result (methylation) at CpG site #35 (LS123 treated): 39; CA4 sequencing result (methylation) at CpG site #43 (LS123 treated): 62; CA4 sequencing result (methylation) at CpG site #52 (LS123 treated): 69; CA4 sequencing result (methylation) at CpG site #104 (LS123 treated): 16; CA4 sequencing result (methylation) at CpG site #120 (LS123 treated): 27; CA4 sequencing result (methylation) at CpG site #127 (LS123 treated): 70; CA4 sequencing result (methylation) at CpG site #129 (LS123 treated): 46; CA4 sequencing result (methylation) at CpG site #140 (LS123 treated): 62; CA4 sequencing result (methylation) at CpG site #153 (LS123 treated): 43; CA4 sequencing result (methylation) at CpG site #156 (LS123 treated): 40; CA4 sequencing result (methylation) at CpG site #158 (LS123 treated): 22; CA4 sequencing result (methylation) at CpG site #164 (LS123 treated): 62; CA4 sequencing result (methylation) at CpG site #181 (LS123 treated): 18; CA4 sequencing result (methylation) at CpG site #190 (LS123 treated): 11; CA4 sequencing result (methylation) at CpG site #199 (LS123 treated): 17; CA4 sequencing result (methylation) at CpG site #201 (LS123 treated): 33; CA4 sequencing result (methylation) at CpG site #204 (LS123 treated): 20; CA4 sequencing result (methylation) at CpG site #213 (LS123 treated): 29; CA4 sequencing result (methylation) at CpG site #218 (LS123 treated): 24; CA4 sequencing result (methylation) at CpG site #220 (LS123 treated): 20; CA4 sequencing result (methylation) at CpG site #227 (LS123 treated): 11; CA4 sequencing result (methylation) at CpG site #6 (LS174T treated): 93; CA4 sequencing result (methylation) at CpG site #35 (LS174T treated): 35; CA4 sequencing result (methylation) at CpG site #43 (LS174T treated): 39; CA4 sequencing result (methylation) at CpG site #52 (LS174T treated): 40; CA4 sequencing result (methylation) at CpG site #104 (LS174T treated): 18; CA4 sequencing result (methylation) at CpG site #120 (LS174T treated): 22; CA4 sequencing result (methylation) at CpG site #127 (LS174T treated): 19; CA4 sequencing result (methylation) at CpG site #129 (LS174T treated): 62; CA4 sequencing result (methylation) at CpG site #140 (LS174T treated): 28; CA4 sequencing result (methylation) at CpG site #153 (LS174T treated): 23; CA4 sequencing result (methylation) at CpG site #156 (LS174T treated): 32; CA4 sequencing result (methylation) at CpG site #158 (LS174T treated): 10; CA4 sequencing result (methylation) at CpG site #164 (LS174T treated): 41; CA4 sequencing result (methylation) at CpG site #181 (LS174T treated): 22; CA4 sequencing result (methylation) at CpG site #190 (LS174T treated): 61; CA4 sequencing result (methylation) at CpG site #199 (LS174T treated): 10; CA4 sequencing result (methylation) at CpG site #201 (LS174T treated): 67; CA4 sequencing result (methylation) at CpG site #204 (LS174T treated): 3; CA4 sequencing result (methylation) at CpG site #213 (LS174T treated): 56; CA4 sequencing result (methylation) at CpG site #218 (LS174T treated): 64; CA4 sequencing result (methylation) at CpG site #220 (LS174T treated): 45; CA4 sequencing result (methylation) at CpG site #227 (LS174T treated): 27; CA4 sequencing result (methylation) at CpG site #6 (SW480 treated): 70; CA4 sequencing result (methylation) at CpG site #35 (SW480 treated): 61; CA4 sequencing result (methylation) at CpG site #43 (SW480 treated): 57; CA4 sequencing result (methylation) at CpG site #52 (SW480 treated): 73; CA4 sequencing result (methylation) at CpG site #104 (SW480 treated): 13; CA4 sequencing result (methylation) at CpG site #120 (SW480 treated): 52; CA4 sequencing result (methylation) at CpG site #127 (SW480 treated): 44; CA4 sequencing result (methylation) at CpG site #129 (SW480 treated): 18; CA4 sequencing result (methylation) at CpG site #140 (SW480 treated): 14; CA4 sequencing result (methylation) at CpG site #153 (SW480 treated): 17; CA4 sequencing result (methylation) at CpG site #156 (SW480 treated): 53; CA4 sequencing result (methylation) at CpG site #158 (SW480 treated): 7; CA4 sequencing result (methylation) at CpG site #164 (SW480 treated): 66; CA4 sequencing result (methylation) at CpG site #181 (SW480 treated): 27; CA4 sequencing result (methylation) at CpG site #190 (SW480 treated): 57; CA4 sequencing result (methylation) at CpG site #199 (SW480 treated): 28; CA4 sequencing result (methylation) at CpG site #201 (SW480 treated): 56; CA4 sequencing result (methylation) at CpG site #204 (SW480 treated): 27; CA4 sequencing result (methylation) at CpG site #213 (SW480 treated): 51; CA4 sequencing result (methylation) at CpG site #218 (SW480 treated): 35; CA4 sequencing result (methylation) at CpG site #220 (SW480 treated): 32; CA4 sequencing result (methylation) at CpG site #227 (SW480 treated): 23; CA4 sequencing result (methylation) at CpG site #6 (SW620 treated): 64; CA4 sequencing result (methylation) at CpG site #35 (SW620 treated): 89; CA4 sequencing result (methylation) at CpG site #43 (SW620 treated): 81; CA4 sequencing result (methylation) at CpG site #52 (SW620 treated): 77; CA4 sequencing result (methylation) at CpG site #104 (SW620 treated): 33; CA4 sequencing result (methylation) at CpG site #120 (SW620 treated): 74; CA4 sequencing result (methylation) at CpG site #127 (SW620 treated): 67; CA4 sequencing result (methylation) at CpG site #129 (SW620 treated): 80; CA4 sequencing result (methylation) at CpG site #140 (SW620 treated): 78; CA4 sequencing result (methylation) at CpG site #153 (SW620 treated): 60; CA4 sequencing result (methylation) at CpG site #156 (SW620 treated): 69; CA4 sequencing result (methylation) at CpG site #158 (SW620 treated): 73; CA4 sequencing result (methylation) at CpG site #164 (SW620 treated): 92; CA4 sequencing result (methylation) at CpG site #181 (SW620 treated): 43; CA4 sequencing result (methylation) at CpG site #190 (SW620 treated): 46; CA4 sequencing result (methylation) at CpG site #199 (SW620 treated): 10; CA4 sequencing result (methylation) at CpG site #201 (SW620 treated): 96; CA4 sequencing result (methylation) at CpG site #204 (SW620 treated): 100; CA4 sequencing result (methylation) at CpG site #213 (SW620 treated): 96; CA4 sequencing result (methylation) at CpG site #218 (SW620 treated): 91; CA4 sequencing result (methylation) at CpG site #220 (SW620 treated): 93; CA4 sequencing result (methylation) at CpG site #227 (SW620 treated): 37

Source: US20100136541A1, “IDENTIFICATION AND VERIFICATION OF METHYLATION MARKER SEQUENCES” (Siemens Healthcare Diagnostics Inc., priority 2003, published 2010)
